Data from patent US20120321647A1, “STRUCTURED RNA MOTIFS AND COMPOUNDS AND METHODS FOR THEIR USE” (YALE UNIVERSITY, priority 2010, published 2012).
“And” between values parts separate entries of the source, which are not always exact repeats. Equal entries are not always repeated. Where two headings read alike, the source gives them in different places. Each block holds one compound with its values, some of them ahead of it. Peptide text beside a SMILES is read from it.

Assays:
[1] = test system: second representative of the glnA motif from a marine metagenomic sequence; assay: In-line probing of a second glnA motif representative; assay type: binding; details: for binding by the RNA: at 1 mM (data not shown)
From the text: (§1) RNAs were 5′-^32P radiolabeled and subjected to in-line probing analyses, which have been described in detail previously (Soukup et al. Relationship between internucleotide linkage geometry and the stability of RNA. RNA 1999; 5:1308-1325; Regulski E E, Breaker R R. In-line probing analysis of riboswitches. Methods Mol Biol 2008; 419:53-67). Briefly, 5′ triphosphates were removed from the RNAs using alkaline phosphatase (Roche) according to the manufacturer's protocol. The dephosphorylated RNAs were 5′-^32P radiolabeled by incubation with [γ-^32P] ATP and T4 polynucleotide kinase (New England Biolabs), following the manufacturer's directions. Denaturing PAGE (6%) was subsequently employed to purify the RNAs as described above. The radiolabeled RNAs were then incubated at 23° C. in a solution containing 75 mM Tris-HCl (pH 8.3 at 23° C.), 20 mM MgCl2, 100 mM KCl, and various different potential ligands (see results section for full list) at concentrations ranging from 1 μM to 10 mM in most cases. When RNAs were subjected to in-line probing with 100 mM L-glutamate, the amino acid replaced the Tris-HCl as the buffering agent. HCl and NaOH were used to adjust this modified in-line probing solution to pH 8.3.
(§2) After incubating for approximately 40 hours, the products of in-line probing reactions were separated by denaturing 10% PAGE. The gels were then dried and imaged using a Storm 820 PhosphorImager (GE Healthcare). The relative intensities of the various degradation products were quantified using SAFA v1.1 software (Das et al. SAFA: Semi-automated footprinting analysis software for high-throughput quantification of nucleic acid footprinting experiments. RNA 2005; 11:344-354). The bands which modulated the most intensely were used to make KD estimates.

83 DP RNA = assay: In-line probing of 83 DP RNA (Downstream-peptide motif); assay type: binding, Synechococcus sp. CC9902; details: for binding by the Downstream-peptide glutamine aptamer: stated in the discussion for both aptamer subtypes, concentration not given at place; for Kd: 1-to-1 interaction, read-out: apparent KD
From the text: as §1, §2

67 glnA RNA = assay: In-line probing of 67 glnA RNA; assay type: binding, Synechococcus elongatus; details: for binding by the 67 glnA aptamer: concentrations as high as 10 mM
From the text: as §1
as §2, with “estimates. In the cases where the concentrations of ligand used were insufficiently high to saturate RNA binding, the data was normalized to KD values that best explained the data assuming a standard one-to-one interaction.” for “estimates.”

construct M3 = assay: In-line probing of 67 glnA construct M3 (compensatory mutations); assay type: binding, Synechococcus elongatus
Protocol: (§3) Pairs of oligonucleotides were used in primer extension reactions to make full-length double-stranded DNA (dsDNA) products to use as templates for in vitro transcription reactions. Primers 1 and 2 were used for 67 glnA, 2 and 3 for Ml, 4 and 5 for M3, 1 and 6 for M2, 1 and 7 for M4, 8 and 9 for 83 DP, 8 and 10 for M5, and 8 and 11 for M6. A 100 μl solution containing 300 pmoles of each primer, 50 mM Tris-HCl (pH 8.3 at 23° C.), 75 mM KCl, 3 mM MgCl2, […] dithiothreitol (DTT), 1 mM of each of the four deoxynucleoside triphosphates (dNTPs), and 8 U/μl of SuperScript II Reverse Transcriptase (Invitrogen) was heated for 2 hours at 42° C. The full length dsDNA was then purified using the QIAquick PCR Purification Kit (QIAgen) following the manufacturer's protocol and was eluted in a volume of 50 […]
as §2, with “The gels were then dried and imaged using a Storm 820 PhosphorImager (GE Healthcare).” left out, “The bands which modulated the most intensely were used to make KD estimates.” left out

[2] = test system: 67 glnA mutant RNA construct M1; assay: In-line probing of 67 glnA mutant M1 (disruptive mutations); assay type: binding, Synechococcus elongatus; details: two disruptive mutations in P2 stem
Protocol: as §3
as §2, with “The gels were then dried and imaged using a Storm 820 PhosphorImager (GE Healthcare).” left out, “The bands which modulated the most intensely were used to make KD estimates.” left out

M5 RNA = assay: In-line probing of mutant 83 DP RNA M5 (disrupted pseudoknot); assay type: binding, Synechococcus sp. CC9902; details: two disruptive mutations in the pseudoknot
Protocol: as §3
as §2, with “The gels were then dried and imaged using a Storm 820 PhosphorImager (GE Healthcare).” left out, “The bands which modulated the most intensely were used to make KD estimates.” left out

construct M4 = assay: In-line probing of 67 glnA construct M4 (compensatory mutations); assay type: binding, Synechococcus elongatus
Protocol: as §3
as §2, with “The gels were then dried and imaged using a Storm 820 PhosphorImager (GE Healthcare).” left out, “The bands which modulated the most intensely were used to make KD estimates.” left out

[3] = test system: 67 glnA mutant RNA construct M2; assay: In-line probing of 67 glnA mutant M2 (disruptive mutations); assay type: binding, Synechococcus elongatus; details: two disruptive mutations in P3 stem
Protocol: as §3
as §2, with “The gels were then dried and imaged using a Storm 820 PhosphorImager (GE Healthcare).” left out, “The bands which modulated the most intensely were used to make KD estimates.” left out

pfl RNA [4] = assay: In-line probing experiments with a pfl RNA; assay type: binding, Clostridium acetobutylicum ATCC 824; details: 1 mM except where noted
Protocol: Some riboswitches were tested for metabolite binding using in-line probing experiments (Regulski et al. In-line probing analysis of riboswitches. Methods Mol Biol 2008, 419:53-67). RNAs tested were transcribed in vitro from a DNA template using RNA polymerase T7. In the experiments described below, no modulation in gel patterns was observed that would indicate metabolite binding.
Experiments were performed with the following RNA encoded by Clostridium acetobutylicum ATCC 824:
The following metabolites were tested at 1 mM except where noted: AICAR riboside, AICAR ribotide, SAICAR, GAR, pyruvate, guanine (100 μM), hypoxanthine (40 μM), IMP, formate, THF, dihydrofolate, 5-formyl-THF, 10-formyl-THF, methylene-THF, methenyl-THF, methyl-THF, SAICAR, glutamate, glutamine, glycine, serine, aspartate, dUMP, homocysteine, SAM, AICA, CAIR, CoA, acetyl-CoA, alanine, NAD, NADH, NADP, NADPH, dCMP, histidine, D-ribose 5′-phosphate, adenine, D-ribose, NADH, SAICAR, CAIR, glycine, PRPR, ppGpp, cAMP, HMP, ATP (600 μM), CTP (600 μM), GTP (600 μM), UTP (600 μM), AMP, ADP, GMP, GDP, UMP, UDP, uridine, and tryptophan.

pfl RNA [5] = assay: RNase protection assay (RNase T1 and V1) with pfl RNA; assay type: binding, Clostridium acetobutylicum ATCC 824; details: shorter incubation time than in-line probing
Protocol: Due to the instability of PRPP, it was also tested in an RNase protection assay with RNase T1 and V1. The use of an RNase permits a shorter incubation time than used for in-line probing.

[6] = test system: SAM-Chlorobi RNA (four RNAs with different 3′ ends); assay: In-line probing experiments with SAM-Chlorobi RNA; assay type: binding, Chlorobium tepidum TLS; details: 1 mM
Protocol: Some riboswitches were tested for metabolite binding using in-line probing experiments (Regulski et al. In-line probing analysis of riboswitches. Methods Mol Biol 2008, 419:53-67). RNAs tested were transcribed in vitro from a DNA template using RNA polymerase T7. In the experiments described below, no modulation in gel patterns was observed that would indicate metabolite binding. […] Experiments were performed on the following four RNAs, encoded by Chlorobium tepidum TLS, which have different 3′ ends: Lowercase letters represent G nucleotides that were added to improve transcription yield. The following metabolites were tested at 1 mM: SAM, SAH, methionine, and homocysteine.

SK209-52 RNA = assay: In-line probing of SK209-52 RNA (SAM/SAH motif); assay type: binding, Roseobacter sp. SK209-2-6; details: SAM samples may contain breakdown product SAH, read-out: apparent dissociation constant (KD)
Protocol: RNA constructs were prepared by in vitro RNA transcription RNA using T7 RNA polymerase and the appropriate DNA templates that were created by overlap extension of synthetic DNA oligonucleotides using SuperScript II reverse transcriptase (Invitrogen) as instructed by the manufacturer. RNA transcripts were purified using denaturing (8 M urea) polyacrylamide gel electrophoresis (PAGE). RNAs were eluted from the gel, dephosphorylated using alkaline phosphatase and 5′ radiolabeled with [γ-32P] using methods reported previously (Wang et al. Riboswitches that sense S-adenosylhomocysteine and activate genes involved in coenzyme recycling. Mol Cell 2008, 29:691-702). 5′ 32P-labeled fragments resulting from in-line probing reactions were subjected to denaturing PAGE, imaged and analyzed as previously described (Wang et al. Riboswitches that sense S-adenosylhomocysteine and activate genes involved in coenzyme recycling. Mol Cell 2008, 29:691-702).

SMILES: O=C(O)CCC(=O)C(=O)O [2-oxoglutarate]
binding by the RNA [1]: rejected

SMILES: NC(=O)CCCC(=O)O [5-amino-5-oxopentanoic acid]
binding by the Downstream-peptide glutamine aptamer (83 DP RNA): loss of binding | binding by the 67 glnA aptamer (67 glnA RNA; in-line probing): rejected

SMILES: CC(=O)CC[C@H](N)C(=O)O [(S)-2-amino-5-oxo-hexanoic acid]
binding by the Downstream-peptide glutamine aptamer (83 DP RNA): reject | binding by the 67 glnA aptamer (67 glnA RNA; in-line probing): rejected

SMILES: C[C@H](N)C(=O)N[C@@H](CCC(N)=O)C(=O)O [Ala-Gln] (H-Ala-Gln-OH)
binding by the Downstream-peptide glutamine aptamer (83 DP RNA): neither Ala-Gln nor L-glutamine t-butyl ester are bound | binding by the 67 glnA aptamer (67 glnA RNA; in-line probing): rejected

SMILES: NC(=O)CC[C@@H](N)C(=O)O [D-glutamine]
binding to 83 DP RNA (83 DP RNA; concentrations up to 10 mM): no binding was detected | affinity relative to its more common isomer (L-glutamine) (67 glnA RNA; in-line probing): approximately 1/10 | fold tighter binding of L-glutamine compared to D-glutamine (67 glnA RNA; in-line probing): 10 fold

SMILES: NC(=O)C[C@H](N)C(=O)O [L-asparagine]
binding by the 67 glnA aptamer (67 glnA RNA; in-line probing): rejected

SMILES: CC(C)(C)OC(=O)[C@@H](N)CCC(N)=O [L-glutamine t-butyl ester]
binding by the Downstream-peptide glutamine aptamer (83 DP RNA): neither Ala-Gln nor L-glutamine t-butyl ester are bound | binding by the 67 glnA aptamer (67 glnA RNA; in-line probing): rejected

SMILES: NC(=O)CC[C@H](N)C(=O)O [L-glutamine]
structural modulation in response to glutamine addition (construct M3): regain structural modulation | Kd [1]: ~150 µM | structural modulation upon addition of glutamine [2]: no modulation | binding to glutamine (M5 RNA): does not bind | Kd (83 DP RNA; listed as glutamine): ~5000 µM | Kd (83 DP RNA): 5000 µM | structural modulation in response to glutamine addition (construct M4): regain structural modulation | structural modulation upon addition of glutamine [3]: no modulation | pattern of RNA cleavage products (67 glnA RNA; 1 mM glutamine added to in-line probing assay containing 100 mM glutamate): produced the pattern of RNA cleavage products expected for glutamine binding | Kd (67 glnA RNA; curve expected for a 1-to-1 RNA-ligand interaction (FIG. 30C), read-out: KD): 575 µM | Kd (67 glnA RNA; in-line probing, one-to-one interaction, read-out: apparent dissociation constant (KD)): ~575 µM

SMILES: NC(=O)CCC[C@H](N)C(=O)O [L-homoglutamine]
binding by the Downstream-peptide glutamine aptamer (83 DP RNA): reject | binding by the 67 glnA aptamer (67 glnA RNA; in-line probing): rejected

SMILES: NCCCC[C@H](N)C(=O)O [L-lysine]
binding by the RNA [1]: rejected

SMILES: CCNC(=O)CC[C@H](N)C(=O)O [L-theanine]
binding by the 67 glnA aptamer (67 glnA RNA; in-line probing): rejected

SMILES: NC(=O)CC[C@H](N)CC(=O)O [L-β-homo glutamine]
binding by the 67 glnA aptamer (67 glnA RNA; in-line probing): rejected

SMILES: CC(=O)OC[C@H](N)C(=O)O [O-acetyl-L-serine]
binding by the 67 glnA aptamer (67 glnA RNA; in-line probing): rejected

modulation in gel patterns that would indicate metabolite binding (pfl RNA [4]): did not reveal evidence of binding
SMILES: O=P(O)(O)OC[C@H]1O[C@H](OP(=O)(O)OP(=O)(O)O)[C@H](O)[C@@H]1O [PRPP]
change in degradation patterns (pfl RNA [5]): no change in degradation patterns was detected

modulation in gel patterns that would indicate metabolite binding [6]: did not reveal binding | Kd (SK209-52 RNA): ~4.3 µM
SMILES: Nc1ncnc2c1ncn2[C@@H]1O[C@H](CSCC[C@H](N)C(=O)O)[C@@H](O)[C@H]1O [SAH, S-adenosylhomocysteine]

SMILES: C[S+](CC[C@H](N)C(=O)[O-])C[C@H]1O[C@@H](n2cnc3c(N)ncnc32)[C@H](O)[C@@H]1O (stereo partly shown) [SAM, S-adenosylmethionine]
modulation in gel patterns that would indicate metabolite binding [6]: did not reveal binding | Kd (SK209-52 RNA): 8.6 µM and ~8.6 µM

binding by the RNA [1]: rejected
SMILES: N=C(N)NCCCCN [agmatine]

SMILES: N[C@@H](CCC(=O)O)C(=O)O [glutamate]
binding by the RNA [1]: rejected | binding by the Downstream-peptide glutamine aptamer (83 DP RNA): reject | structural modulation (67 glnA RNA; in-line probing, 100 mM glutamate as the primary buffering agent): no structural modulation was observed

SMILES: O=C(O)CCCC(=O)O [glutaric acid]
binding by the RNA [1]: rejected

binding by the RNA [1]: rejected
SMILES: NCCCCN [putrescine]

binding by the RNA [1]: rejected
SMILES: Cc1ncc(COP(=O)(O)O)c(C=O)c1O [pyridoxal phosphate]

binding by the RNA [1]: rejected
SMILES: O=C(O)CCC(=O)O [succinate]

binding by the RNA [1]: rejected
SMILES: O=CCCC(=O)O [succinic semialdehyde]

binding by the RNA [1]: rejected
SMILES: NCCCC(=O)O [γ-aminobutyric acid]
